The viability is a read-out of living cells in per cent, often relative to untreated cells.

The nature of the series: in vitro. As to conditions: human, hela cells, % viability.

In the case of `CC(C)N(C)CCOc1ncccc1OCCO` [CBK039171], the viability at 28.5 h, 10 µM was 104%.
In the case of `COc1ccc(NC(=O)Cn2cnc3c2c(=O)n(C)c(=O)n3C)cc1Cl` [CBK134216], the viability at 28.5 h, 10 µM stood at 95.9%.
`N#C/C(=C\c1cn(CCC(N)=O)c2ccccc12)c1nc2ccccc2[nH]1` [CBK267966]: the viability at 28.5 h, 10 µM stood at 104%.
Same read-out and setting: with `COC(=O)c1ncn(CC(=O)N2CCCCCC2)n1` [CBK305184] the figure was 98.9%; with `CC(C)NC(=O)N[C@H]1CC[C@]2(CC1)CC(=O)c1ccccc1O2` [CBK283389], 111%.
Still for that read-out and setting: the figure for `COC(=O)CNC(=O)CNS(=O)(=O)c1ccc(C(C)=O)cc1` [CBK044117] is 89.1%; for `Cc1ccc(Cl)c(N2CCN(CCCn3c(=S)[nH]c4ccccc4c3=O)CC2)c1` [CBK268011] it is 90%.
On the same count and under the same terms, the figure for `c1coc(-c2nnc(Nc3nc4cc5c(cc4s3)OCO5)o2)c1` [CBK287492] is 89.8%.
As for `CC1(C)Cc2nc(N3CCOCC3)ncc2C(NC(=O)NC(C)(C)C)C1` (stereo not drawn) [CBK306978], the viability at 28.5 h, 10 µM was found to be 101%.
Regarding `CN(C)CC(=O)N1CCc2nc(-c3ccccc3F)sc2C1` [CBK281918], the viability at 28.5 h, 10 µM amounted to 85.6%.
On the same count and under the same terms, the figure for `Cc1cc2c(=O)n(Cc3ccco3)c(SCc3cc(O)[nH]n3)nc2s1` [CBK268291] is 94.3%.
For the molecule `O/N=C1\CC(c2ccccc2)Oc2ccc(Cl)cc21` (stereo not drawn) [CBK288370], the viability at 28.5 h, 10 µM came out at 91.1%.
Same read-out and setting: with `Cn1cc(C(=O)N2CCc3ncc(Cl)cc3C2)ccc1=O` [CBK285130] the figure was 100%; with `Cc1cc(C2CCCCCN2C(=O)c2c(C)noc2C)no1` (stereo not drawn) [CBK284845], 85.1%; with `Nc1ncnc2c1nc1n2[C@@H]2O[C@H](C1)[C@H](O)C2O` (stereo partly drawn) [CBK201224], 108%.
In the case of `Cc1ccc(-n2c3nc(=O)n(C)c(=O)c-3cc3ccccc32)cc1` [CBK288007], the viability at 28.5 h, 10 µM worked out at 103%.
Consider `CN(CC1(C)COC1)C(=O)c1cn2cc(Cl)ccc2n1` [CBK281721], for which the viability at 28.5 h, 10 µM came out at 109%.
`NC(=O)C1=CN([C@@H]2O[C@H](CO)[C@H](O)C2O)C2N=CN=C(N)C12` (stereo partly drawn) [CBK201209]: for the setting “bulk resorufin, single well”, the viability at 28.5 h, 10 µM was found to be 0.996%.
In the case of `O=C(COC(=O)c1cc(-c2ccc(Cl)cc2)nc2ccccc12)c1cccc([N+](=O)[O-])c1` [CBK293923], the viability at 28.5 h, 10 µM was found to be 83%.
Same read-out and setting: the figure for `CC(=O)c1cc(C(=O)NCc2ccc(C)cc2)n(C)c1` [CBK296750] is 85.1%; for `O=C(O)c1ccc(OCCN2CCOCC2)cc1` [CBK287038] it is 94.5%.
Same read-out and setting: with `O=C(O)CSc1nnc(-c2ccco2)n1-c1ccccc1` [CBK131685] the figure was 85.9%.
With `COCCOC(=O)N1CCC(C(=O)NC(c2ccc(Cl)cc2)c2cccs2)CC1` (stereo not drawn) [CBK059702], the viability at 28.5 h, 10 µM worked out at 104%.
Still for that read-out and setting: the figure for `Cc1nn(C)cc1C(C)NC(=O)C1CC2C=CC1C21CC1` (stereo not drawn) [CBK282088] is 100%.
Consider `COCc1cccc(-c2nccnc2OC(c2ccccc2)c2ccccc2)c1` [CBK106960], for which the viability at 28.5 h, 10 µM stood at 101%.
As for `Cc1cc(C)cc(N(CC(=O)Nc2ccccc2-c2ccccc2)S(=O)(=O)c2ccccc2)c1` [CBK265933], the viability at 28.5 h, 10 µM was determined as 92.4%.
On the same count and under the same terms, with `CCC(C)(C)c1ccc(S(=O)(=O)N2CCCN(Cc3ccnc4ccccc34)CC2)cc1` [CBK062865] the figure was 92.1%.
Still for that read-out and setting: the figure for `CCOC(=O)c1cnn(C2CCCN(Cc3cncs3)C2)c1` (stereo not drawn) [CBK304039] is 94.7%; for `CCS(=O)(=O)c1ccc2oc([C@H]3CCN(S(=O)(=O)c4ccccc4)C3)nc2c1` [CBK289382] it is 88.2%.
Same read-out and setting: with `Cc1csc2c(C3CCN(C(=O)c4ccn(C)n4)CC3)nc(C)n12` [CBK285248] the figure was 105%; with `COc1ccc(C(C)NC(=O)c2cc(-c3ccc(F)cc3)[nH]n2)cc1` (stereo not drawn) [CBK288060], 87%.
As for `O=C1CC(c2nc(-c3ccncc3)no2)CN1c1ccc2c(c1)OCO2` (stereo not drawn) [CBK288583], the viability at 28.5 h, 10 µM amounted to 110%.
With `O=C(CN1CCC(c2ccccc2F)CC1)N1CCCCC1` [CBK283577], the viability at 28.5 h, 10 µM turned out to be 97.3%.
`O=C(c1ccco1)N1CCC(c2ccnc3nc4ccccc4n23)CC1` [CBK284490]: the viability at 28.5 h, 10 µM turned out to be 87.2%.
Same read-out and setting: the figure for `O=C(Nc1ccccc1Cl)N1CCCCC1CO` (stereo not drawn) [CBK156180] is 91.9%.
Same read-out and setting: with `O=S(=O)(Nc1nnn[nH]1)c1ccc(-c2ccccn2)s1` [CBK062589] the figure was 106%; with `CCN(CC)C(=O)CN1CCN(c2nccnc2Oc2ccc(OC)c(OC)c2)CC1` [CBK083051T], 103%; with `COc1ccccc1NC(=O)c1c(NC(=O)c2cc([N+](=O)[O-])ccc2Cl)sc2c1CCCC2` [CBK263827], 88.7%.
Still for that read-out and setting: the figure for `CNC(=O)c1sc2ccccc2c1C1CCN(Cc2nc3ccccc3n2C(C)C)C1` (stereo not drawn) [CBK285929] is 98.4%; for `O=C1NC2(CCCCCC2)C(=O)N1Cc1cnn(-c2ccccc2)n1` [CBK305571] it is 100%.
As to `O=C(CSCC(=O)Nc1ccc2ccccc2c1)NCC1CCCO1` (stereo not drawn) [CBK058183], the viability at 28.5 h, 10 µM amounted to 89.6%.
Regarding `NC(=O)CSc1nnc(COc2ccc(Br)cc2)n1-c1ccccc1` [CBK267277], the viability at 28.5 h, 10 µM was 101%.
For the molecule `NC(=O)c1c(NC(=S)NC(NC(=O)c2ccco2)C(Cl)(Cl)Cl)sc2c1CCCC2` (stereo not drawn) [CBK261055], the viability at 28.5 h, 10 µM was 103%.
With `Cc1nn(CCC(=O)NCCN2CCC(C)CC2)c(C)c1Cl` [CBK281571], the viability at 28.5 h, 10 µM stood at 104%.
On the same count and under the same terms, with `Nc1cc2cccnc2nc1-c1ccc(OC(F)(F)F)cc1` [CBK067616] the figure was 93.8%; with `COC(=O)CCC(=O)NNC(=O)c1cccc(Br)c1` [CBK261606], 107%.
As to `O=C(NCc1cccnc1)c1ccccc1-n1cccc1` [CBK149602], the viability at 28.5 h, 10 µM was determined as 92.3%.
In the case of `O=C(CSc1nnc(-c2ccncc2)s1)NNC(=O)c1cccs1` [CBK269600], the viability at 28.5 h, 10 µM is 82.3%.
The same measure, in the same setting: with `COc1ccc(S(=O)(=O)NC(C)C(=O)NCc2ccncc2)cc1C` (stereo not drawn) [CBK269347] the figure was 101%; with `O=C(COc1cccc(Cl)c1)N/N=C\c1ccc(C(=O)O)cc1` [CBK262293], 102%.
Still for that read-out and setting: with `O=C(CCN1C(=O)c2ccc([N+](=O)[O-])cc2C1=O)Nc1ccccc1-c1ccccc1` [CBK265134] the figure was 103%; with `CC(C)CNC(=S)N[C@H]1CO[C@H]2[C@@H]1OC[C@@H]2Nc1nccc(C(C)(C)C)n1` [CBK289523], 90.9%; with `CCOC(=O)Cn1nc(CC)n2c(cc3ccsc32)c1=O` [CBK284133], 83.9%.
On the same count and under the same terms, with `NC1=C2NN(c3ccc(Cl)cc3Cl)N=C2N(c2ccccc2)N1` [CBK107773] the figure was 98.1%; with `Cc1nn(CC(=O)NC(C)C)c(=O)c2cc3ccsc3n12` [CBK284027], 83.9%.
On to `CN(C(=O)c1c[nH]nc1-c1ccc(CNC(=O)c2cccc(Cl)c2)cc1)c1ccccc1` [CBK285597], for which the viability at 28.5 h, 10 µM was 79.9%.
For the molecule `Cc1ccc(S(=O)(=O)N2CC=CCC2)cc1` [CBK058443], the viability at 28.5 h, 10 µM was determined as 89%.
On the same count and under the same terms, the figure for `CCN(CC)CCOc1cc(=O)oc2ccccc12` [CBK022747C] is 105%.
Regarding `COC(=O)[C@@H](C)NC(=O)[C@H]1CN(C(=O)c2cccnc2)CCN1C(=O)NC1CCCCC1` [CBK289632], the viability at 28.5 h, 10 µM worked out at 86%.
Same read-out and setting: with `O=C(CSc1ncccn1)N/N=C/c1ccncc1` [CBK262401] the figure was 103%; with `O=C(c1ccccc1Cl)c1cc(Cl)ccc1-n1ccnc1` [CBK005151], 95.2%; with `O=c1n(CCCNCc2ccc(Cl)cc2Cl)nc2n1CCCC2` [CBK305382], 97.2%.
As for `Cc1cccc(N2CCN(CC(=O)Nc3cc(Cl)ccc3C#N)CC2)c1` [CBK306055], the viability at 28.5 h, 10 µM is 109%.
The same measure, in the same setting: the figure for `OC1(c2ccccc2)CCNCC1` [CBK012290] is 101%; for `CN1CCN(C(=O)Nc2cccc(-c3nc(-c4ccc(C#N)cc4)cnc3N)c2)CC1` [CBK116251] it is 91.7%.
With `COc1ccc(CCCC(=O)N2CCN(c3ccccc3OC)CC2)cc1OC` [CBK091495], the viability at 28.5 h, 10 µM turned out to be 87.1%.
On the same count and under the same terms, with `O=C(CSc1nc2[nH]ncc2c(=O)n1-c1ccccc1)Nc1ccc(F)c(Cl)c1` [CBK266453] the figure was 97.6%; with `Cn1cnnc1C1CCN(C(=O)CC2OCCc3sccc32)CC1` (stereo not drawn) [CBK304912], 90.2%; with `c1ccc(Nc2nc(-c3ccc4c(c3)OCO4)cn3ccnc23)cc1` [CBK037494], 92.2%.
Same read-out and setting: the figure for `O=C(CNC(=O)c1ccc(Br)cc1)NC1CCCC1` [CBK269591] is 90.3%; for `COc1ccc(S(=O)(=O)NCCCn2ccnc2)cc1Cl` [CBK269997] it is 97.2%; for `Cc1noc(C)c1CC(=O)NCc1ccc(CN2CCCCC2)cc1` [CBK281422] it is 93.6%.
In the case of `COc1cc(/C=N/NC(=O)CC#N)ccc1OCc1ccccc1Cl` [CBK263932], the viability at 28.5 h, 10 µM was 84.9%.
On to `O=C(O)CCSc1ccnc2ccccc12` [CBK122524C], for which the viability at 28.5 h, 10 µM stood at 93.2%.
The same measure, in the same setting: the figure for `Cc1nc(N2CCN(Cc3ccc4c(c3)OCO4)CC2)c2c(C)c(C)sc2n1` [CBK266739] is 100%; for `Cc1ccc(S(=O)(=O)n2c(SCc3ccccc3)nc3ccccc32)cc1` [CBK293933] it is 104%.
On the same count and under the same terms, with `O=S(=O)(Nc1nnc(C(F)(F)F)s1)c1ccc(Br)cc1` [CBK200047] the figure was 89.6%.
The same measure, in the same setting: the figure for `c1cncc(C(N2CCOCC2)N2CCOCC2)c1` [CBK260999] is 94.5%; for `COc1ccc(-c2ccc(C(=O)N(C)C)c(N3CCN(C(=O)c4ccco4)CC3)n2)cc1` [CBK106020] it is 86.3%.
For `N#Cc1ccccc1NC(=O)C(CC(=O)O)NCc1ccccc1` (stereo not drawn) [CBK286907], the viability at 28.5 h, 10 µM came to 83.6%.
`Cc1cc(Cl)cc(Br)c1OCCNCCN(C)C` [CBK267791G]: the viability at 28.5 h, 10 µM is 102%.
